Reference: PubChem BioAssay (NCI)
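48-hour exposure; five concentrations; linearly interpolated endpoints. Definition used: TGI = concentration required for complete inhibition of growth.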

Assays:
Test in all cases: NCI-60 cell line screen, 48 h
[1] = system: NCI-H522 lung
[2] = system: SN12C renal
[3] = system: T-47D breast
[4] = system: NCI-H23 lung
[5] = system: SNB-75 CNS
[6] = system: SW-620 colon
[7] = system: 786-0 renal
[8] = system: HOP-62 NSCLC
[9] = system: SK-MEL-2 melanoma
[10] = system: TK-10 renal
[11] = system: EKVX NSCLC
[12] = system: OVCAR-5 ovarian
[13] = system: HOP-92 NSCLC
[14] = system: MDA-N
[15] = system: SF-295 CNS
[16] = system: HL-60(TB) leukemia
[17] = system: SK-MEL-28 melanoma
[18] = system: OVCAR-4 ovarian
[19] = system: BT-549 breast
[20] = system: HS 578T breast
[21] = system: UACC-62 melanoma
[22] = system: SNB-19 CNS
[23] = system: SR leukemia
[24] = system: IGROV1 ovarian
[25] = system: MCF7 breast
[26] = system: DU-145 prostate
[27] = system: MDA-MB-231 breast
[28] = system: SK-OV-3 ovarian
[29] = system: NCI-H460 lung
[30] = system: SF-268 CNS
[31] = system: A549 NSCLC
[32] = system: HCT-116 colon
[33] = system: U251 CNS
[34] = system: KM12 colon
[35] = system: NCI/ADR-RES ovarian
[36] = system: OVCAR-8 ovarian
[37] = system: SK-MEL-5 melanoma
[38] = system: HCC-2998 colon
[39] = system: M14 melanoma
[40] = system: COLO 205 colon
[41] = system: K-562 leukemia
[42] = system: ACHN renal
[43] = system: RXF 393 renal
[44] = system: OVCAR-3 ovarian
[45] = system: A498 renal
[46] = system: HT29 colon
[47] = system: NCI-H226 lung
[48] = system: LOX IMVI melanoma
[49] = system: RPMI-8226 leukemia
[50] = system: MALME-3M melanoma
[51] = system: CCRF-CEM leukemia
[52] = system: UO-31 renal
[53] = system: UACC-257 melanoma
[54] = system: HCT-15 colon
[55] = system: CAKI-1 renal
[56] = system: PC-3 prostate
[57] = system: SF-539 CNS
[58] = system: MOLT-4 leukemia

CC1=NCC[N+]1(CCc1ccccc1)Cc1ccccc1 (centres undefined)
TGI [1]: 72.3 µM
TGI [2]: > 100 µM
TGI [3]: > 100 µM
TGI [4]: > 100 µM
TGI [5]: > 100 µM
TGI [6]: > 100 µM
TGI [7]: > 100 µM
TGI [8]: > 100 µM
TGI [9]: > 100 µM
TGI [10]: > 100 µM
TGI [11]: > 100 µM
TGI [12]: > 100 µM
TGI [13]: 49.8 µM
TGI [14]: > 100 µM
TGI [15]: > 100 µM
TGI [16]: 68.7 µM
TGI [17]: > 100 µM
TGI [18]: > 100 µM
TGI [19]: > 100 µM
TGI [20]: > 100 µM
TGI [21]: > 100 µM
TGI [22]: > 100 µM
TGI [23]: > 100 µM
TGI [24]: > 100 µM
TGI [25]: > 100 µM
TGI [26]: > 100 µM
TGI [27]: > 100 µM
TGI [28]: > 100 µM
TGI [29]: > 100 µM
TGI [30]: > 100 µM
TGI [31]: > 100 µM
TGI [32]: > 100 µM
TGI [33]: > 100 µM
TGI [34]: > 100 µM
TGI [35]: > 100 µM
TGI [36]: > 100 µM
TGI [37]: > 100 µM
TGI [38]: > 100 µM
TGI [39]: > 100 µM
TGI [40]: 21.5 µM
TGI [41]: 31 µM
TGI [42]: > 100 µM
TGI [43]: > 100 µM
TGI [44]: 91 µM
TGI [45]: > 100 µM
TGI [46]: > 100 µM
TGI [47]: > 100 µM
TGI [48]: > 100 µM
TGI [49]: 69.8 µM
TGI [50]: > 100 µM
TGI [51]: > 100 µM
TGI [52]: > 100 µM
TGI [53]: 91.7 µM
TGI [54]: > 100 µM

Cc1cc(C#N)c[n+](C)c1
TGI [1]: > 100 µM
TGI [2]: > 100 µM
TGI [3]: > 100 µM
TGI [4]: > 100 µM
TGI [5]: > 100 µM
TGI [6]: > 100 µM
TGI [7]: > 100 µM
TGI [8]: > 100 µM
TGI [9]: > 100 µM
TGI [10]: > 100 µM
TGI [11]: > 100 µM
TGI [55]: > 100 µM
TGI [12]: > 100 µM
TGI [14]: > 100 µM
TGI [15]: > 100 µM
TGI [16]: > 100 µM
TGI [56]: > 100 µM
TGI [17]: > 100 µM
TGI [18]: > 100 µM
TGI [19]: > 100 µM
TGI [20]: > 100 µM
TGI [21]: > 100 µM
TGI [22]: > 100 µM
TGI [23]: > 100 µM
TGI [24]: > 100 µM
TGI [25]: > 100 µM
TGI [26]: > 100 µM
TGI [27]: > 100 µM
TGI [28]: > 100 µM
TGI [29]: > 100 µM
TGI [30]: > 100 µM
TGI [31]: > 100 µM
TGI [32]: > 100 µM
TGI [33]: > 100 µM
TGI [34]: > 100 µM
TGI [35]: > 100 µM
TGI [36]: > 100 µM
TGI [37]: > 100 µM
TGI [38]: > 100 µM
TGI [39]: > 100 µM
TGI [40]: > 100 µM
TGI [41]: > 100 µM
TGI [42]: > 100 µM
TGI [43]: > 100 µM
TGI [44]: > 100 µM
TGI [45]: > 100 µM
TGI [57]: > 100 µM
TGI [46]: > 100 µM
TGI [47]: > 100 µM
TGI [50]: > 100 µM
TGI [51]: > 100 µM
TGI [52]: > 100 µM
TGI [53]: > 100 µM
TGI [58]: > 100 µM
TGI [54]: > 100 µM
